Measurements as given in paper PMC4526365 (Nature structural & molecular biology, 2015).

Experiments:
[1] = target: T1, human intelectin-1 (hIntL-1) (Homo sapiens, UniProt Q8WWA0); test: ELISA-like assay on immobilized biotinylated carbohydrate; type: binding
Target sequence in this assay (Q8WWA0 whole entry): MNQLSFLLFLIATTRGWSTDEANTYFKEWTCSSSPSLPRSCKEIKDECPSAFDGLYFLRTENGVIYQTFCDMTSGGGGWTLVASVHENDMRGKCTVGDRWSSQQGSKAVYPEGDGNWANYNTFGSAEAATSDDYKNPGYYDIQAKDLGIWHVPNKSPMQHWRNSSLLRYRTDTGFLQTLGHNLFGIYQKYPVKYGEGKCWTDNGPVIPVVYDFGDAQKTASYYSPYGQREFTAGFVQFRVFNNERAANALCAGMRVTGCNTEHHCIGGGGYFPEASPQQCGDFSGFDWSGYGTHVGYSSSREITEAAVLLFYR

[2] = target: T1, human intelectin-1 (hIntL-1); test: competitive inhibition of hIntL-1 binding to β-Galf
Target sequence in this assay (Q8WWA0 19-298): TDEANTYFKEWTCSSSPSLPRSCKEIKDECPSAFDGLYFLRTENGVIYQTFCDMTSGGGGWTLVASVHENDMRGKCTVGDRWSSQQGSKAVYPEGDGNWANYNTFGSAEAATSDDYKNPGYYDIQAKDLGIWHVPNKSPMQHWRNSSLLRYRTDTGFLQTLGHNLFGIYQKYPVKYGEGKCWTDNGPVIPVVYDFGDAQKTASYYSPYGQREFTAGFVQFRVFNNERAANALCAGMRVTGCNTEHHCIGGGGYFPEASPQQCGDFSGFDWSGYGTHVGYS

| Kd [1] | Molecule | competitive inhibition of hIntL-1 binding to β-Galf [2] |
| --- | --- | --- |
| 85 ± 14 nM | β-D-Galf (biotinylated, immobilized) [β-Galf] |  |
|  | O=P(O)(O)OCC(O)CO (centres unmarked) [glycerol-1-phosphate] | glycerol and glycerol-1-phosphate— competitively inhibit the lectin from binding to β-Galf |
